From ChEMBL document CHEMBL5108044, “Discovery of a Novel Potent STAT3 Inhibitor HP590 with Dual p-Tyr705/Ser727 Inhibitory Activity for Gastric Cancer Treatment” (J Med Chem, 2022)
Active and inactive are the calls of the source. The rule behind the calls is not given here.

Legend:
[1] = biological target: T1, Signal transducer and activator of transcription 3 (Homo sapiens, UniProt P40763); assay: Inhibition of STAT3 in human GES1cells assessed as downregulation of c-myc expression at 10 to 40 nM incubated for 24 hrs by RT-PCR analysis; format: cell-based; conditions: GES1, dose 10-40 nM
T1 sequence (P40763 whole entry): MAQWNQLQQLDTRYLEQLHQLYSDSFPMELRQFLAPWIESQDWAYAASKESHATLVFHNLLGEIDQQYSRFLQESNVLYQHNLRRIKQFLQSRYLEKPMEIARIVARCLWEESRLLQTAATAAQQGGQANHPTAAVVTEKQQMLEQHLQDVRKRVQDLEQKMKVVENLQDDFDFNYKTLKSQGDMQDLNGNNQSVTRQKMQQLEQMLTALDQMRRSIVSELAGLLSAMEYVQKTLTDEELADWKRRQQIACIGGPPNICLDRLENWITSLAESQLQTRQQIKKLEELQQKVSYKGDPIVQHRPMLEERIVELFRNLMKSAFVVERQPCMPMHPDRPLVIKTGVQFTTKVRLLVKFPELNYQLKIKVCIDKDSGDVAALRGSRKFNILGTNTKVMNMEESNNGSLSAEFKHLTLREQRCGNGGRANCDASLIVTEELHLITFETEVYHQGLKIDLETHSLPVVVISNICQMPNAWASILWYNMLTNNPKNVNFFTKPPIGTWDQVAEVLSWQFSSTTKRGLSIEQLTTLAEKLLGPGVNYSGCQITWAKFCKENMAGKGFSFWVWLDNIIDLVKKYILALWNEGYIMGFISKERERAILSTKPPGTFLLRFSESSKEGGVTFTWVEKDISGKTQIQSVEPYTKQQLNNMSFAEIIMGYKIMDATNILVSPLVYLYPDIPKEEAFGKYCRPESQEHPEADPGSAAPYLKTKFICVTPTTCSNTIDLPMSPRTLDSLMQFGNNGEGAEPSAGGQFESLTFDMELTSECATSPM

MKN-45 [2] = assay: Antitumor activity against human MKN-45 cells xenografted in BALB/c nude mouse assessed as decrease in tumor volume at 25 mg/kg, po qd measured for 5 weeks; format: functional, organism-based
MKN-45 [3] = assay: Induction of apoptosis in human MKN-45 cells assessed as early apoptic cells 5 nM incubated for 48 hrs by FITC-annexin V/propidium iodide staining based flow cytometry (reference value: 2.79%); format: functional
[4] = biological target: T1, Signal transducer and activator of transcription 3; assay: Inhibition of STAT3 in human MGC-803 cells assessed as downregulation of cyclin D1 expression up to 40 nM by western blot analysis; format: cell-based; conditions: time <= 24.0 hrs, TDE = time-dependent effect
[5] = biological target: T1, Signal transducer and activator of transcription 3; assay: Inhibition of STAT3 in human AGS cells assessed as downregulation of c-myc expression at 10 to 40 nM incubated for 24 hrs by RT-PCR analysis; format: cell-based; conditions: dose 10-40 nM
[6] = biological target: T1, Signal transducer and activator of transcription 3; assay: Inhibition of STAT3 phosphorylation at Tyr705 residue in human MKN-45 cells incubated upto 24 hrs by Western blotting analysis; format: cell-based; conditions: dose <= 40.0 nM, DDE = dose-dependent effect
MKN-45 [7] = assay: Inhibition of mitochondrial respiration in human MKN-45 cells assessed as oxygen consumption rate incubated for 1 hr by Seahorse XF24 extracellular flux analyzer; format: functional, cell-based; conditions: dose 1-100 nM, DDE = dose-dependent effect
MGC-803 = assay: Potency index, ratio of IC50 for BBI608 to IC50 for test compound for antiproliferative activity against human MGC-803 cells assessed as reduction in cell viability incubated for 72 hrs by MTS assay; format: functional
[8] = biological target: T1, Signal transducer and activator of transcription 3; assay: Inhibition of STAT3 phosphorylation at Tyr705 residue in human AGS cells incubated upto 24 hrs by Western blotting analysis; format: cell-based; conditions: dose <= 40.0 nM, DDE = dose-dependent effect
MKN-45 [9] = assay: Antitumor activity against human MKN-45 cells xenografted in po dosed BALB/c nude mouse assessed as decrease in tumor volume measured for 5 weeks; format: functional, organism-based; conditions: dose 25-50 mg/kg, DDE = dose-dependent effect
MKN-45 [10] = assay: Inhibition of colony formation in human MKN-45 cells assessed as reduction in number of colonies incubated for 5 to 7 days by crystal violet staining based assay; format: functional, cell-based; conditions: dose <= 20.0 nM, time 5-7 day, DDE = dose-dependent effect
[11] = biological target: T1, Signal transducer and activator of transcription 3; assay: Inhibition of IL-6 induced STAT3 phosphorylation at Tyr705 residue in human MKN-45 cells at 40 nM preincubated for 24 hrs followed by IL-6 stimulation and measured after 30 min by Western blotting analysis; format: cell-based; conditions: time 24.5 hrs
[12] = biological target: T1, Signal transducer and activator of transcription 3; assay: Inhibition of STAT3 phosphorylation at Tyr705 residue in human AGS cells upto 40 nM incubated upto 24 hrs by Western blotting analysis; format: cell-based
AGS [13] = assay: Inhibition of colony formation in human AGS cells assessed as reduction in number of colonies incubated for 5 to 7 days by crystal violet staining based assay; format: functional, cell-based; conditions: dose <= 20.0 nM, time 5-7 day, DDE = dose-dependent effect
[14] = Toxicity in […] mouse xenografted with human MKN-45 cells assessed as heart damage at 25 to 50 mg/kg, po qd administered for 5 weeks by H and E staining based analysis; format: organism-based; conditions: in vivo, 840 h, dose 25-50 mg/kg
AGS [15] = assay: Induction of apoptosis in human AGS cells assessed as viable cells at 5 nM incubated for 48 hrs by FITC-annexin V/propidium iodide staining based flow cytometry (reference value: 87.2%); format: functional; conditions: read-out: Activity
[16] = biological target: Tyrosine-protein kinase JAK1 (Homo sapiens, UniProt P23458); assay: Inhibition of JAK1 (unknown origin)
Chain of Tyrosine-protein kinase JAK1 (P23458 whole entry): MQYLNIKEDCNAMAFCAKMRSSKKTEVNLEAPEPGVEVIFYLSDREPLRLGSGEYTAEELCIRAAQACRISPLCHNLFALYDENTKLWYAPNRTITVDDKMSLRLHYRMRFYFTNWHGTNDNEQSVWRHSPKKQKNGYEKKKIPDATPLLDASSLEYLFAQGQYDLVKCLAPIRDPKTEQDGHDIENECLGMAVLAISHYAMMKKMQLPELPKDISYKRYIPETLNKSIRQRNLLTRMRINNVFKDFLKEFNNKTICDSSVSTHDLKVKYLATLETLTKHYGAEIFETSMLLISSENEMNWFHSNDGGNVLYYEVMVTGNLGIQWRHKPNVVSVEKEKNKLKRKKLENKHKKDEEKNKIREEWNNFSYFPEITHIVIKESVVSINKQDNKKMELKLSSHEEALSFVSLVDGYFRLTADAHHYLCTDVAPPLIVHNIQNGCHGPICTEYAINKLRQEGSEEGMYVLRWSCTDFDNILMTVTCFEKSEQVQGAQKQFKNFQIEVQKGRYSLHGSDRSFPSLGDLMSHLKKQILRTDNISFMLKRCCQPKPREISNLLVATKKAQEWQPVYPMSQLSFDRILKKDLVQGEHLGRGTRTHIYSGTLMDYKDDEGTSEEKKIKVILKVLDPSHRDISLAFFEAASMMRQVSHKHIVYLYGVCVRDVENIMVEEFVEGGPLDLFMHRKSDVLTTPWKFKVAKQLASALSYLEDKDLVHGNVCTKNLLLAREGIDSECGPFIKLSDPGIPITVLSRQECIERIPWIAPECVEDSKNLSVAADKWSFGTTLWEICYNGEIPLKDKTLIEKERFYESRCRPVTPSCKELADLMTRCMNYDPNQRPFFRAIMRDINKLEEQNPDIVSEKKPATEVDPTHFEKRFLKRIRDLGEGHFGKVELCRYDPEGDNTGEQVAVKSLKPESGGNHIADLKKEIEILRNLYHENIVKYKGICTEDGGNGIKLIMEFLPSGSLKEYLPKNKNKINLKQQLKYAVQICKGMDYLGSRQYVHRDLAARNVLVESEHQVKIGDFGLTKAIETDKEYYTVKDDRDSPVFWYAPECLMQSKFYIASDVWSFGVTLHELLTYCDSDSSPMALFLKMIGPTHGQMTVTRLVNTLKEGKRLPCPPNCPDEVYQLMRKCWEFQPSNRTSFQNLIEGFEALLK

[17] = Elimination half life in ICR mouse plasma at 1 mg/kg, iv measured up to 24 hrs by LC-MS/MS analysis; format: ADME, organism-based; conditions: read-out: beta t1/2 (converted)
[18] = biological target: T1, Signal transducer and activator of transcription 3; assay: Inhibition of STAT3 phosphorylation at Ser727 residue in human AGS cells incubated upto 24 hrs by Western blotting analysis; format: cell-based; conditions: dose <= 40.0 nM, DDE = dose-dependent effect
AGS [19] = assay: Antiproliferative activity against human AGS cells assessed as reduction in cell viability incubated for 72 hrs by MTS assay; format: functional, cell-based
[20] = Cmax in ICR mouse plasma at 1 mg/kg, iv measured up to 24 hrs by LC-MS/MS analysis; format: ADME, organism-based; parameters: time < 24 hrs, dose 1 mg/kg, route iv
MKN-45 [21] = assay: Induction of apoptosis in human MKN-45 cells assessed as viable cells at 5 nM incubated for 48 hrs by FITC-annexin V/propidium iodide staining based flow cytometry (reference value: 68%); format: functional; conditions: read-out: Activity
[22] = biological target: T1, Signal transducer and activator of transcription 3; assay: Inhibition of STAT3 phosphorylation at Tyr705 residue in human MGC-803 cells incubated upto 24 hrs by Western blotting analysis; format: cell-based; conditions: dose <= 40.0 nM, DDE = dose-dependent effect
[23] = biological target: T1, Signal transducer and activator of transcription 3; assay: Inhibition of IL-6 induced STAT3 phosphorylation at Tyr705 residue in human MGC-803 cells at 40 nM preincubated for 24 hrs followed by IL-6 stimulation and measured after 30 min by Western blotting analysis; format: cell-based; conditions: time 24.5 hrs
[24] = biological target: T1, Signal transducer and activator of transcription 3; assay: Inhibition of STAT3 in human MKN-45 cells assessed as downregulation of c-Myc expression up to 40 nM by western blot analysis; format: cell-based; conditions: time <= 24.0 hrs, DDE = dose-dependent effect
[25] = AUC (0 to t) in ICR mouse plasma at 1 mg/kg, iv measured up to 24 hrs by LC-MS/MS analysis; format: ADME, organism-based; parameters: dose 1 mg/kg, time < 24 hrs, route iv
MKN-45 [26] = assay: Induction of apoptosis in human MKN-45 cells assessed as early apoptic cells 10 nM incubated for 48 hrs by FITC-annexin V/propidium iodide staining based flow cytometry (reference value: 2.79%); format: functional
Cytochrome P450 2C9 = Cytochrome P450 2C9 (Homo sapiens, UniProt P11712); assay: Inhibition of CYP2C9 in human liver microsome; format: ADME, microsomes
Chain of Cytochrome P450 2C9 (P11712 whole entry): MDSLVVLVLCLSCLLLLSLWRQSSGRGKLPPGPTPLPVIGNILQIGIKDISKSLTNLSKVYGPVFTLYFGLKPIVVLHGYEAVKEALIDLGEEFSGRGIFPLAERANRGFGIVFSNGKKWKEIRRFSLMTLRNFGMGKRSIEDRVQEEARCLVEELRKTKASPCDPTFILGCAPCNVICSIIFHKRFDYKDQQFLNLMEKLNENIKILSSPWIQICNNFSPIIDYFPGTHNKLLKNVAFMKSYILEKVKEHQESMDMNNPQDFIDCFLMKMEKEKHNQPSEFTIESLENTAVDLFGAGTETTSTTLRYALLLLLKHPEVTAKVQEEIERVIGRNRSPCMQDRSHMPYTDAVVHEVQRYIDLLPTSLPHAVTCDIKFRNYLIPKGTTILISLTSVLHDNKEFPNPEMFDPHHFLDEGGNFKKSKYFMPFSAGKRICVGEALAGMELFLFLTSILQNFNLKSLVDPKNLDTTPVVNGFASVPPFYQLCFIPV

MKN-45 [27] = assay: Antiproliferative activity against human MKN-45 cells assessed as cell viability incubated for 72 hrs by MTS assay; format: functional, cell-based; conditions: dose <= 100.0 nM, DDE = dose-dependent effect
[28] = biological target: T1, Signal transducer and activator of transcription 3; assay: Inhibition of STAT3 in human AGS cells assessed as downregulation of Bcl2 expression at 10 to 40 nM incubated for 24 hrs by RT-PCR analysis; format: cell-based; conditions: dose 10-40 nM
AGS [29] = assay: Inhibition of colony formation in STAT3 knockdown human AGS cells assessed as reduction in number of colonies incubated for 5 to 7 days by crystal violet staining based assay; format: functional, cell-based; conditions: time 5-7 day
AGS [30] = assay: Induction of apoptosis in human AGS cells assessed as late apoptic cells 5 nM incubated for 48 hrs by FITC-annexin V/propidium iodide staining based flow cytometry (reference value: 9.56%); format: functional
GES1 = assay: Antiproliferative activity against human GES1 cells assessed as cell viability measured upto 1 uM incubated for 72 hrs by MTS assay; format: toxicity, cell-based; conditions: ges1, 72 h
[31] = biological target: Proto-oncogene tyrosine-protein kinase Src (Homo sapiens, UniProt P12931); assay: Inhibition of SRC (unknown origin)
Chain of Proto-oncogene tyrosine-protein kinase Src (P12931 2-536 limits assumed): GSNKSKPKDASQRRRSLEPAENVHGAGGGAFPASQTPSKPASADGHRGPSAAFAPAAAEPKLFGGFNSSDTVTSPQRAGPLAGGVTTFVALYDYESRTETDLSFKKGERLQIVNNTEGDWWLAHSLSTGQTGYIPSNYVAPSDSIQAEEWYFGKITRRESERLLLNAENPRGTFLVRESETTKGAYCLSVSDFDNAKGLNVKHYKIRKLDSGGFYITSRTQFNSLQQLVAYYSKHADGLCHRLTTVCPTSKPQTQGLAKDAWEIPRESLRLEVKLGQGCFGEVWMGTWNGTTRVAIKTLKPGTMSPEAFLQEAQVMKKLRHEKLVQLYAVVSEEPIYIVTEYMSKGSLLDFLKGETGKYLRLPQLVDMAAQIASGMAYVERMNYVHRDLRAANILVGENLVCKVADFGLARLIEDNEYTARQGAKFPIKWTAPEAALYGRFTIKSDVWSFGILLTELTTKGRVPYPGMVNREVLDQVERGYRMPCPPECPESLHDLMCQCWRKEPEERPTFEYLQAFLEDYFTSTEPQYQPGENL

[32] = Toxicity in BALB/c nude mouse xenografted with human MKN-45 cells assessed as spleen damage at 25 to 50 mg/kg, po qd administered for 5 weeks by H and E staining based analysis; format: organism-based; conditions: in vivo, 840 h, dose 25-50 mg/kg

With `O=C(c1ccc(-c2noc(-c3ccc(C(F)(F)F)cc3)n2)cc1)N1CCN(Cc2ccc(OCC(F)(F)F)cc2)CC1` as the compound, how does the inhibition [1] read?
The inhibition was “Active”.

And the Activity (MKN-45 [2])?
The Activity was “Active”.

What about the Activity (MKN-45 [3]) of the same compound?
Its Activity is 4.73%.

And the inhibition [4]?
Its inhibition is “Tde”.

And the inhibition [5]?
Its inhibition is “Active”.

And the inhibition [6]?
Its inhibition is “Dde”.

What about the inhibition (MKN-45 [7]) of the same compound?
The inhibition was “Dde”.

What about the “Ratio IC50” value (MGC-803) of the same compound?
The value was 30.

What about the inhibition [8] of the same compound?
The inhibition was “Dde”.

What about the Activity (MKN-45 [9]) of the same compound?
Its Activity is “Dde”.

What about the inhibition (MKN-45 [10]) of the same compound?
Its inhibition is “Dde”.

And the inhibition [11]?
The inhibition was “Active”.

And the inhibition [12]?
Its inhibition is 100%.

What about the inhibition (AGS [13]) of the same compound?
Its inhibition is “Dde”.

And the Activity [14]?
The Activity was “Non-Toxic”.

And the viability at 0.005 µM (AGS [15])?
The viability at 0.005 µM was 85.7%.

What about the IC50 [16] of the same compound?
The IC50 was over 10 µM.

And the half-life [17]?
Its half-life is 9.06 h.

What about the inhibition [18] of the same compound?
Its inhibition is “Dde”.

What about the IC50 (AGS [19]) of the same compound?
Its IC50 is 0.0135 µM.

What about the Cmax [20] of the same compound?
The Cmax was 666 ng/mL.

And the viability at 0.005 µM (MKN-45 [21])?
The viability at 0.005 µM was 69.6%.

And the inhibition [22]?
The inhibition was “Dde”.

And the inhibition [23]?
The inhibition was “Active”.

And the inhibition [24]?
The inhibition was “Dde”.

And the AUC(0-t) at 24 h [25]?
The AUC(0-t) at 24 h was 1730 ng·h/mL.

And the Activity (MKN-45 [26])?
Its Activity is 5.7%.

And the IC50 (Cytochrome P450 2C9)?
The IC50 was 22.9 µM.

And the Activity (MKN-45 [27])?
Its Activity is “Dde”.

And the inhibition [28]?
The inhibition was “Active”.

What about the inhibition (AGS [29]) of the same compound?
The inhibition was “Active”.

What about the Activity (AGS [30]) of the same compound?
The Activity was 7.61%.

What about the Activity (GES1) of the same compound?
The Activity was “Non-Toxic”.

What about the IC50 [31] of the same compound?
The IC50 was over 10 µM.

And the Activity [32]?
Its Activity is “Non-Toxic”.
